Holding throughout (format): cell-based
In one test the target is T1, human TLR7 (Homo sapiens, UniProt Q9NYK1).
T1 construct: host or cells: HEK-Blue cells
T1 sequence (Q9NYK1 27-1049): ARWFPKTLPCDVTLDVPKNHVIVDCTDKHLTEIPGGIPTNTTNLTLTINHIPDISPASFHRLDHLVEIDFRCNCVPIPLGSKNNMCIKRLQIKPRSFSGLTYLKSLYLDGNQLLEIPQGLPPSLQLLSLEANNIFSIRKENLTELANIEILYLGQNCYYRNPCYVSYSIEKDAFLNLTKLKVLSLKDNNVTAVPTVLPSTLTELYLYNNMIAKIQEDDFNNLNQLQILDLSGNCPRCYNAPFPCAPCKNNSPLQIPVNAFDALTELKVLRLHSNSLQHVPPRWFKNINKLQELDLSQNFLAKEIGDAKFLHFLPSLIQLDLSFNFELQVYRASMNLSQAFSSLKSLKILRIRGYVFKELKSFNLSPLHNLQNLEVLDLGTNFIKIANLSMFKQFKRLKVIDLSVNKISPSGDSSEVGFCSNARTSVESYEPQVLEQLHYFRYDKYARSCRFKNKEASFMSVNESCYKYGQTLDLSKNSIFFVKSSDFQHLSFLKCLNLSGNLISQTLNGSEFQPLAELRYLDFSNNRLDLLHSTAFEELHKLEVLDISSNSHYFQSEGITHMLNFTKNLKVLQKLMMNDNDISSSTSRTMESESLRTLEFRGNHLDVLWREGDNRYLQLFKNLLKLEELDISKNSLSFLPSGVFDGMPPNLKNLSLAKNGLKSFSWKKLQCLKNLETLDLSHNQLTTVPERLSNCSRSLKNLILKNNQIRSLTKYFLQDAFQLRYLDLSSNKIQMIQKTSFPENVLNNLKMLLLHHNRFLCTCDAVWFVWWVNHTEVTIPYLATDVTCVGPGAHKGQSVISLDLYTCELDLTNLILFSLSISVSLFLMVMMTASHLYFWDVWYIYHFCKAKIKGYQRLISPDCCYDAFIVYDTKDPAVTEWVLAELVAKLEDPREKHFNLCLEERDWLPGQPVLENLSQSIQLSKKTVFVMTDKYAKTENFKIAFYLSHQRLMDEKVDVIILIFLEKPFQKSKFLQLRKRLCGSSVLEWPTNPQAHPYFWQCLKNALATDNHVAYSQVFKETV
In words: TLR7 inhibition reporter assay (HEK-Blue cells, SEAP reporter, gardiquimod stimulation). As to conditions: HEK-Blue cells overexpressing human TLR7, SEAP reporter, gardiquimod 7.5 μM. The procedure, abridged:
(§1)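 Cells were pre-treated 30 min at room temperature with compound (final 0.05 nM–50 μM), then stimulated with gardiquimod 7.5 μM (TLR7), R848 15.9 μM (TLR8) or ODN2006 5 nM (TLR9). SEAP was read after 22 h at 37° C; percent inhibition scaled between agonist+DMSO and known-inhibitor wells.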

The target of the next test is T2, human TLR9 (Homo sapiens, UniProt Q9NR96).
T2 construct: host or cells: HEK-Blue cells
T2 sequence (Q9NR96 26-1032): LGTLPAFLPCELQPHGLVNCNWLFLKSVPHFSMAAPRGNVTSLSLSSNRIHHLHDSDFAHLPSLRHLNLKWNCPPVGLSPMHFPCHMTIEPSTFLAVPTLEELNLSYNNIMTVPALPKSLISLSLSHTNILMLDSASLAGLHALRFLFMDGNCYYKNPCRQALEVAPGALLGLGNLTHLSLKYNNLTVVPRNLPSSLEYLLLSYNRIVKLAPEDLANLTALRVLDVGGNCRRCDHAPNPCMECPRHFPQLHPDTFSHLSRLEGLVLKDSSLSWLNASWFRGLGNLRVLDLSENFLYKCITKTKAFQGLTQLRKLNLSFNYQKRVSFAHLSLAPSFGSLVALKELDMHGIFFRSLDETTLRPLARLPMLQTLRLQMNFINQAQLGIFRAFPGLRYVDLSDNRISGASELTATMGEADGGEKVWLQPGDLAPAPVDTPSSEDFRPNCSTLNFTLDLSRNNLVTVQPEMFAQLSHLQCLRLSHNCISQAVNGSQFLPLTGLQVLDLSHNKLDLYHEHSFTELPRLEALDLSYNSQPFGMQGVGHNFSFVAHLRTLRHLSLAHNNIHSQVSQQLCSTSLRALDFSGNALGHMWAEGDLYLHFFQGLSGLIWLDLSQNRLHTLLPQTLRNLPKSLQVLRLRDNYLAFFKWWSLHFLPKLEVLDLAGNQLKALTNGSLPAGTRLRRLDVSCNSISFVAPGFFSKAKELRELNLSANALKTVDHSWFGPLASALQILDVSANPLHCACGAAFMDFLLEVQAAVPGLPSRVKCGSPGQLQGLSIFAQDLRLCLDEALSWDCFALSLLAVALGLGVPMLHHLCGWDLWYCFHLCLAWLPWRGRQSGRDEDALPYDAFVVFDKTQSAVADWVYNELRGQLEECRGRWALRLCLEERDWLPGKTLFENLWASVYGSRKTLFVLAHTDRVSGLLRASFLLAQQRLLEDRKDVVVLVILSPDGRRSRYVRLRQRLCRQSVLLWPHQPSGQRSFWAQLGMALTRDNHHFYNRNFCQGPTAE
In words: TLR9 inhibition reporter assay (HEK-Blue cells, SEAP reporter, ODN2006 stimulation). As to conditions: HEK-Blue cells overexpressing human TLR9, SEAP reporter, ODN2006 5 nM. In a few lines:
as §1

A further test deals with T3, human TLR8 (Homo sapiens, UniProt Q9NR97).
T3 construct: host or cells: HEK-Blue cells
T3 sequence (Q9NR97 27-1041): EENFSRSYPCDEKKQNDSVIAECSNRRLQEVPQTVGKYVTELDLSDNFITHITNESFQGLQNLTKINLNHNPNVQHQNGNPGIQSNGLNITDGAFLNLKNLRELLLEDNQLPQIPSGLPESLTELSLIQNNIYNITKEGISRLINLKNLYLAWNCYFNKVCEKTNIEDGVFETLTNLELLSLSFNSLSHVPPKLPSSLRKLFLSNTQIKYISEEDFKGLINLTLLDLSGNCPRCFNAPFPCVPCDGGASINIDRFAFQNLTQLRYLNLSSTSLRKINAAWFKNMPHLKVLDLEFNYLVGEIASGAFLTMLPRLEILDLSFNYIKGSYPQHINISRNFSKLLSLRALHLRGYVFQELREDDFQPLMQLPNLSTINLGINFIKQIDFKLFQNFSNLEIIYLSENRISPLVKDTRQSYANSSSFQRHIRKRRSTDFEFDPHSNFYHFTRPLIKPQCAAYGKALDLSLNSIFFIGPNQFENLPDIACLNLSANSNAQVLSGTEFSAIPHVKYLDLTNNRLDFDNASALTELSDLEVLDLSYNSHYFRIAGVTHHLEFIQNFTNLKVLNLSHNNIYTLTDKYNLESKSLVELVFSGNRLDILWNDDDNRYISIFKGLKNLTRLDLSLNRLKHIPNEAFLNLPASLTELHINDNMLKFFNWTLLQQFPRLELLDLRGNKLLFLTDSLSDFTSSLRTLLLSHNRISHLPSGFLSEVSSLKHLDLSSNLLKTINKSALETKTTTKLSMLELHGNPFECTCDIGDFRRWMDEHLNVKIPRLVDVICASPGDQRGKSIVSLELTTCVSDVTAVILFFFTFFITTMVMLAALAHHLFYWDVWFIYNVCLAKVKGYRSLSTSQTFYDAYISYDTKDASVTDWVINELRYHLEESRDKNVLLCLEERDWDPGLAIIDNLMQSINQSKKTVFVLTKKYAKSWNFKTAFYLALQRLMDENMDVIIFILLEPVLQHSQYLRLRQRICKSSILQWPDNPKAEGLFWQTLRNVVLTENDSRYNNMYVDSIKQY
In words: TLR8 inhibition reporter assay (HEK-Blue cells, SEAP reporter, R848 stimulation). As to conditions: HEK-Blue cells overexpressing human TLR8, SEAP reporter, R848 15.9 μM. In a few lines:
as §1

Structures are written as SMILES. pIC50: −log10 of the molar value.

As usually defined, the pIC50 is the IC50 on a negative log10 scale, so that one unit is a factor of ten. Read a high pIC50 as a low IC50.

As to `Cc1cc(-c2[nH]nc(C3CCC(NCC4(C)COC4)CC3)c2C(C)C)cn2ncnc12` (single isomer, unassigned) [Example 280], the pIC50 against human TLR7 is 8.90; against human TLR9, 5.30; against human TLR8 it was 9.14.
Consider `Cc1cc(-c2[nH]nc(C(=O)N(C)Cc3cccnc3)c2C(C)C)cn2ncnc12` [Example 17], for which the pIC50 on human TLR7 is 8.09; on human TLR9, 5.46; at human TLR8 it was 8.08.
With `COc1cc(-c2[nH]nc(C(=O)NC3CCN(CC4CCOCC4)CC3)c2CC(F)(F)F)cn2ncnc12` [Example 197], the pIC50 on human TLR7 was 8.27; against human TLR9, 4.88; against human TLR8 it was 8.68.
In the case of `CCN(C)C1CCC(c2n[nH]c(-c3cc(C)c4ncnn4c3)c2C(C)C)CC1` (single isomer, unassigned) [Example 283], the pIC50 is 7.73 against human TLR7, under 4.30 against human TLR9 and 8.77 on human TLR8.
On to `Cc1cc(-c2[nH]nc(-c3ncc(C4CCN(C(C)C(C)C)CC4)cn3)c2C(C)C)cn2ncnc12` (stereo not drawn) [Example 372], for which the pIC50 against human TLR7 was 7.97; on human TLR9, 5.05; against human TLR8, 8.60.
As for `CCN1CCC[C@H](NC(=O)c2n[nH]c(-c3cc(C)c4ncnn4c3)c2C(C)C)C1` [Example 164], the values for the pIC50 against human TLR7, against human TLR9 and on human TLR8 were 8.88, 4.81 and 8.35, respectively.
For `COCCN1CCC(c2cnc(-c3n[nH]c(-c4cc(OC)c5ncnn5c4)c3C(C)C)cn2)CC1` [Example 396], the pIC50 was 6.99 against human TLR7, under 4.30 against human TLR9 and 7.27 on human TLR8.
In the case of `CCCN1CCC(NC(=O)c2n[nH]c(-c3cc(OC)c4ncnn4c3)c2CC(F)(F)F)CC1` [Example 195, 5-(8-methoxy-[1,2,4]triazolo[1,5-a]pyridin-6-yl)-N-(1-propylpiperidin-4-yl)-4-(2,2,2-trifluoroethyl)-1H-pyrazole-3-carboxamide], the negative logarithm of the IC50 (pIC50) against human TLR7 was 8.65; against human TLR9 it was 5.26; against human TLR8 it was 8.78.
The matching figures for `Cc1cc(-c2[nH]nc(C(=O)N[C@H]3CC[C@@H](NCc4cncnc4)CC3)c2C(C)C)cn2ncnc12` [Example 102]: 9.43, 5.41 and 7.85.
The matching figures for `Cc1cc(-c2[nH]nc(C(=O)N[C@H]3CC[C@@H](N(CCC(C)(C)C)CCC(C)(C)C)CC3)c2C(C)C)cn2ncnc12` [Example 90]: 9.10, 4.95 and 8.95.
Regarding `Cc1cc(-c2[nH]nc(C(=O)N[C@H]3CC[C@@H](N(C)C)CC3)c2C(C)C)cn2ncnc12` [Example 84], the pIC50 at human TLR7 was 9.05; against human TLR9, 5.04; on human TLR8, 9.08.
The matching figures for `Cc1c(C(=O)NC2CCN(C)CC2)n[nH]c1-c1cc(C)c2ncnn2c1` [compound 180]: 8.45, 5.28 and 8.43.
As for `CCN1CC(C(=O)N(C)C2CCC(c3n[nH]c(-c4cc(C)c5ncnn5c4)c3C(C)C)CC2)C1` (single isomer, unassigned) [Example 305], the pIC50 is 6.51 against human TLR7, under 4.30 at human TLR9 and 7.15 against human TLR8.
For `COc1cc(-c2[nH]nc(C(=O)N(C)C3CCN(C)CC3)c2C(C)C)cn2ncnc12` [Example 9], the figures for the pIC50 at human TLR7, against human TLR9 and on human TLR8 were under 5.51, 5.38 and under 5.51, respectively.
As for `Cc1cc(-c2[nH]nc(-c3nc4c(s3)CNCC4)c2C(C)C)cn2ncnc12` [Example 218], the pIC50 against human TLR7 is 8.84; on human TLR9, 4.44; on human TLR8, 7.73.
With `Cc1cc(-c2[nH]nc(C(=O)NCC3CN(C(C)C)CCO3)c2C(C)C)cn2ncnc12` (stereo not drawn) [Example 135], the pIC50 against human TLR7 was 8.17; against human TLR9, 4.65; on human TLR8, 7.41.
As for `CCN(C)C1CCC(c2n[nH]c(-c3cc(C)c4ncnn4c3)c2C(C)C)CC1` (single isomer, unassigned) [Example 282], the pIC50 was 7.53 on human TLR7, under 4.30 on human TLR9 and 8.27 against human TLR8.
Turning to `Cc1cc(-c2[nH]nc(-c3ccc4cnccc4c3)c2C(C)C)cn2ncnc12` [Example 214], the pIC50 against human TLR7 was 8.86; against human TLR9, 4.99; at human TLR8, 9.41.
On to `Cc1cc(-c2[nH]nc(C(=O)NC3CCC(N(C)C)CC3)c2C(C)C)cn2ncnc12` (stereo not drawn) [Example 7], for which the results for the pIC50 on human TLR7, at human TLR9 and at human TLR8 were 8.11, 5.26 and 8.18, respectively.
As to `Cc1cc(-c2[nH]nc(-c3cccc(N)c3)c2C(C)C)cn2ncnc12` [Example 232], the negative-log IC50 (pIC50) against human TLR7 is 8.38; at human TLR9, under 4.30; against human TLR8 it was 8.10.

The values are drawn from patent US20230117470A1, “SUBSTITUTED PYRAZOLE COMPOUNDS AS TOLL RECEPTOR INHIBITORS” (BRISTOL-MYERS SQUIBB COMPANY, priority 2019, published 2023).
